Measurements from ChEMBL document CHEMBL1201862, “PubChem BioAssay data set” (2004).
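Assay format: 96-well plates, 48-hour exposure. GI50: concentration for 50% inhibition of growth.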 Activity calls are given as the source filed them. Cut-off read from the data, not from the text of the source: active = GI50 up to about 1.1 µM and inactive = higher.

Columns and labels:
Assay in all cases: growth of human tumour cells (NCI), 48 h
[1] = tested on: A549
[2] = tested on: BT-549
[3] = tested on: CAKI-1
[4] = tested on: DU-145
[5] = tested on: HCC 2998
[6] = tested on: HCT-116
[7] = tested on: HCT-15
[8] = tested on: HOP-92
[9] = tested on: HT-29
[10] = tested on: K562
[11] = tested on: MCF7
[12] = tested on: NCI-H226
[13] = tested on: NCI-H23
[14] = tested on: NCI-H460
[15] = tested on: NCI-H522
[16] = tested on: OVCAR-5
[17] = tested on: RXF 393
[18] = tested on: SF-539
[19] = tested on: SF-295
[20] = tested on: SK-MEL-2

SMILES | GI50 [1] | GI50 [2] | GI50 [3] | GI50 [4] | GI50 [5] | GI50 [6] | GI50 [7] [µM] | GI50 [8] | GI50 [9] | GI50 [10] | GI50 [11] | GI50 [12] | GI50 [13] | GI50 [14] | GI50 [15] | GI50 [16] | GI50 [17] | GI50 [18] | GI50 [19] | GI50 [20]
N/C(CSCCSC/C(N)=N/O)=N\O | > 100 µM (inactive) | > 100 µM (inactive) | > 100 µM (inactive) | > 100 µM (inactive) | > 100 µM (inactive) | > 100 µM (inactive) | > 100 | > 100 µM (inactive) | > 100 µM (inactive) | > 100 µM (inactive) | > 100 µM (inactive) | > 100 µM (inactive) | > 100 µM (inactive) | > 100 µM (inactive) | > 100 µM (inactive) | > 100 µM (inactive) | > 100 µM (inactive) | > 100 µM (inactive) | – | –
N#Cc1[nH]c(=S)[nH]c1N | > 100 µM (inactive) | > 100 µM (inactive) | > 100 µM (inactive) | > 100 µM (inactive) | > 100 µM (inactive) | > 100 µM (inactive) | > 100 | > 100 µM (inactive) | > 100 µM (inactive) | > 100 µM (inactive) | > 100 µM (inactive) | > 100 µM (inactive) | > 100 µM (inactive) | > 100 µM (inactive) | > 100 µM (inactive) | > 100 µM (inactive) | > 100 µM (inactive) | > 100 µM (inactive) | > 100 µM (inactive) | > 100 µM (inactive)
CCCCc1ccc(Nc2nc(Cl)c3ncn(C4CC(Oc5ccc(C)cc5)C(COc5ccc(C)cc5)O4)c3n2)cc1 (stereo not given) | > 100 µM (inactive) | > 100 µM (inactive) | 6.52 µM (inactive) | > 100 µM (inactive) | 44.9 µM (inactive) | > 100 µM (inactive) | > 100 | 17.2 µM (inactive) | > 100 µM (inactive) | > 100 µM (inactive) | > 100 µM (inactive) | > 100 µM (inactive) | > 100 µM (inactive) | – | > 100 µM (inactive) | > 100 µM (inactive) | > 100 µM (inactive) | > 100 µM (inactive) | > 100 µM (inactive) | > 100 µM (inactive)
CCOc1ccc(NCC2CC/C(=C\C=C\c3ccccc3)C2=O)cc1 (stereo not given) | 42.1 µM (inactive) | 15.2 µM (inactive) | 12.7 µM (inactive) | 33.2 µM (inactive) | 31.9 µM (inactive) | 6.98 µM (inactive) | 5.41 | 16.1 µM (inactive) | 13.5 µM (inactive) | 3.61 µM (inactive) | 3.18 µM (inactive) | 44.7 µM (inactive) | 18 µM (inactive) | 32 µM (inactive) | 8.61 µM (inactive) | 21.5 µM (inactive) | 16.1 µM (inactive) | 18.9 µM (inactive) | 26.5 µM (inactive) | > 100 µM (inactive)
N=C(N)N/N=C\c1ccc(C2CCNCC2)cc1 | > 100 µM (inactive) | > 100 µM (inactive) | > 100 µM (inactive) | > 100 µM (inactive) | > 100 µM (inactive) | > 100 µM (inactive) | > 100 | > 100 µM (inactive) | > 100 µM (inactive) | > 100 µM (inactive) | > 100 µM (inactive) | > 100 µM (inactive) | > 100 µM (inactive) | > 100 µM (inactive) | > 100 µM (inactive) | > 100 µM (inactive) | > 100 µM (inactive) | > 100 µM (inactive) | > 100 µM (inactive) | > 100 µM (inactive)
CC(N)C(C)Cc1ccccc1 (stereo not given) | > 100 µM (inactive) | > 100 µM (inactive) | > 100 µM (inactive) | > 100 µM (inactive) | > 100 µM (inactive) | > 100 µM (inactive) | > 100 | 64.4 µM (inactive) | > 100 µM (inactive) | > 100 µM (inactive) | > 100 µM (inactive) | > 100 µM (inactive) | > 100 µM (inactive) | > 100 µM (inactive) | > 100 µM (inactive) | > 100 µM (inactive) | > 100 µM (inactive) | – | > 100 µM (inactive) | –
COc1ccc2c3c1OC1C4(CCC5C(C2)N(CC2CC2)CCC351)OCCO4 (stereo not given) | > 100 µM (inactive) | > 100 µM (inactive) | > 100 µM (inactive) | > 100 µM (inactive) | > 100 µM (inactive) | > 100 µM (inactive) | > 100 | > 100 µM (inactive) | > 100 µM (inactive) | > 100 µM (inactive) | > 100 µM (inactive) | > 100 µM (inactive) | > 100 µM (inactive) | > 100 µM (inactive) | > 100 µM (inactive) | > 100 µM (inactive) | > 100 µM (inactive) | – | > 100 µM (inactive) | > 100 µM (inactive)
CC1(C)OC(CCC#N)CN1C(=O)OCc1ccccc1 (stereo not given) | > 100 µM (inactive) | 20.7 µM (inactive) | > 100 µM (inactive) | > 100 µM (inactive) | > 100 µM (inactive) | > 100 µM (inactive) | > 100 | > 100 µM (inactive) | – | > 100 µM (inactive) | > 100 µM (inactive) | 23.6 µM (inactive) | > 100 µM (inactive) | > 100 µM (inactive) | 75.2 µM (inactive) | > 100 µM (inactive) | > 100 µM (inactive) | > 100 µM (inactive) | > 100 µM (inactive) | > 100 µM (inactive)
O=C(N/N=C(COc1ccccc1Cl)\N=C\c1ccncc1)c1ccncc1 | > 100 µM (inactive) | > 100 µM (inactive) | > 100 µM (inactive) | > 100 µM (inactive) | > 100 µM (inactive) | > 100 µM (inactive) | > 100 | > 100 µM (inactive) | > 100 µM (inactive) | > 100 µM (inactive) | > 100 µM (inactive) | – | > 100 µM (inactive) | > 100 µM (inactive) | > 100 µM (inactive) | > 100 µM (inactive) | > 100 µM (inactive) | > 100 µM (inactive) | > 100 µM (inactive) | > 100 µM (inactive)
CC(=O)OCCOCn1c2c(c(=O)[nH]c1=O)CCC2 | > 100 µM (inactive) | > 100 µM (inactive) | > 100 µM (inactive) | > 100 µM (inactive) | > 100 µM (inactive) | > 100 µM (inactive) | > 100 | > 100 µM (inactive) | > 100 µM (inactive) | > 100 µM (inactive) | > 100 µM (inactive) | > 100 µM (inactive) | > 100 µM (inactive) | – | > 100 µM (inactive) | > 100 µM (inactive) | > 100 µM (inactive) | > 100 µM (inactive) | > 100 µM (inactive) | > 100 µM (inactive)
CCCCCC(C)(C)CCC(=O)OC1OC(COC2OC(COC3OC(CO)C(O)C(O)C3O)C(O)C(O)C2O)C(O)C(O)C1O (stereo not given) | > 100 µM (inactive) | > 100 µM (inactive) | – | > 100 µM (inactive) | > 100 µM (inactive) | > 100 µM (inactive) | > 100 | > 100 µM (inactive) | > 100 µM (inactive) | > 100 µM (inactive) | > 100 µM (inactive) | > 100 µM (inactive) | > 100 µM (inactive) | > 100 µM (inactive) | > 100 µM (inactive) | > 100 µM (inactive) | 6.17 µM (inactive) | > 100 µM (inactive) | > 100 µM (inactive) | > 100 µM (inactive)
